# Assay results published in patent EP4206196A1, “PYRIMIDINE SUBSTITUTED DERIVATIVES AS TYK2 INHIBITORS” (Almirall S.A., priority 2021, dated 2023).
# Experiments:
# [1] = biological target: T1, TYK2 (JH2domain-pseudokinase) (Homo sapiens, UniProt P29597); assay: TYK2 JH2 domain binding assay (KINOMEscan)
# T1 construct: TYK2 (JH2domain-pseudokinase)-tagged T7 phage strains were prepared in an E. coli host derived from the BL21 strain; made in house; host or cells: E. coli BL21-derived host (T7 phage) or HEK-293 cells
# T1 sequence (P29597 589-875 limits assumed): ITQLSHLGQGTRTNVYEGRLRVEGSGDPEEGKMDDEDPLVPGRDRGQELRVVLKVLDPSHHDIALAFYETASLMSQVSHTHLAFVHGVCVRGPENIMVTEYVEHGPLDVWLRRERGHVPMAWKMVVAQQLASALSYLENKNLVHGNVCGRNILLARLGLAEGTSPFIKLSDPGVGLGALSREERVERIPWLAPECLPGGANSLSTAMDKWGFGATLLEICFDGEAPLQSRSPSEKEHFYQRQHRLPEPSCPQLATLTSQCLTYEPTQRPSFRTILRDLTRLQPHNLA
# Procedure, shortened: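 Competition binding of DNA-tagged TYK2 JH2 pseudokinase domain against immobilised affinity ligand, 1 h at room temperature in SeaBlock/PBS/Tween/DTT buffer with about 1% DMSO. Bound kinase eluted and quantified by qPCR. Kd taken from 11-point 3-fold series, usually 30,000 nM top, fitted by Levenberg-Marquardt nonlinear least squares.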
# [2] = system: STAT1/3 through TYK2/JAK1; assay: IFNa induced STAT phosphorylation in HEK293 cells (SIE-bla reporter gene); type: cell-based; conditions: Homo sapiens, HEK293; HEK293T-sie-bla cells, IFNa at EC80, 4 hours; read-out: Inhibition of IFNa induced STAT phosphorylation HEK293 cells IC50
# Procedure, shortened: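 HEK293T cells carrying a SIE-driven β-lactamase reporter were co-treated with compound (1/5 serial dilution, 10 points, 0.1% DMSO final) and IFNa at EC80 for 4 h at 37°C. β-Lactamase substrate was added to stop the stimulation, followed by overnight dark incubation and FRET read. IC50 from a four-parameter logistic fit.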
Kd [1] [µM],IC50 [2] [µM],Compound
0.0002 to 0.001,0.01 to 0.1,"Cc1cc(Nc2cc(Nc3ncc(-c4ccnn4C)cc3N(C)S(C)(=O)=O)ncn2)nc(C)n1 [Example 127, N-[2-[[6-[(2,6-dimethylpyrimidin-4-yl)amino]pyrimidin-4-yl]amino]-5-(2-methylpyrazol-3-yl)-3-pyridyl]-N-methyl-methanesulfonamide]"
< 0.0002,0.1 to 1,"Cc1cc(Nc2cc(Nc3ncc(-c4nccn4C)cc3N(C)S(C)(=O)=O)ncn2)nc(C)n1 [Example 128, N-[2-[[6-[(2,6-dimethylpyrimidin-4-yl)amino]pyrimidin-4-yl]amino]-5-(1-methylimidazol-2-yl)-3-pyridyl]-N-methyl-methanesulfonamide]"
< 0.0002,0.01 to 0.1,"Cc1cc(Nc2cc(Nc3ncc(-c4cc(C)nn4C)cc3N(C)S(C)(=O)=O)ncn2)nc(C)n1 [Example 129, N-[5-(2,5-dimethylpyrazol-3-yl)-2-[[6-[(2,6-dimethylpyrimidin-4-yl)amino]pyrimidin-4-yl]amino]-3-pyridyl]-N-methyl-methanesulfonamide]"
0.0002 to 0.001,0.1 to 1,"Cc1cc(Nc2cc(Nc3ncc(-c4ncnn4C)cc3N(C)S(C)(=O)=O)ncn2)nc(C)n1 [Example 130, N-[2-[[6-[(2,6-dimethylpyrimidin-4-yl)amino]pyrimidin-4-yl]amino]-5-(2-methyl-1,2,4-triazol-3-yl)-3-pyridyl]-N-methyl-methanesulfonamide]"
< 0.0002,0.01 to 0.1,"Cc1cc(Nc2cc(Nc3ncc(-c4ccn(C)n4)cc3N(C)S(C)(=O)=O)ncn2)nc(C)n1 [Example 131, N-[2-[[6-[(2,6-dimethylpyrimidin-4-yl)amino]pyrimidin-4-yl]amino]-5-(1-methylpyrazol-3-yl)-3-pyridyl]-N-methyl-methanesulfonamide]"
0.0002 to 0.001,0.1 to 1,"COc1c(C)ccnc1Nc1cc(Nc2cc(C)nc(C)n2)ncn1 [Example 132, N4-(2,6-dimethylpyrimidin-4-yl)-N6-(3-methoxy-4-methyl-2-pyridyl)pyrimidine-4,6-diamine]"
0.0002 to 0.001,> 1,"Cc1cc(Nc2cc(Nc3ncc(-c4nnc(C)n4C)cc3N(C)S(C)(=O)=O)ncn2)nc(C)n1 [Example 134, N-[2-[[6-[(2,6-dimethylpyrimidin-4-yl)amino]pyrimidin-4-yl]amino]-5-(4,5-dimethyl-1,2,4-triazol-3-yl)-3-pyridyl]-N-methyl-methanesulfonamide]"
< 0.0002,< 0.01,"[2H]C([2H])([2H])N(c1cc(-c2nnc(C)n2C)cnc1Nc1cc(Nc2cc(C)nc(C)n2)ncn1)S(C)(=O)=O [Example 136, N-[2-[[6-[(2,6-dimethylpyrimidin-4-yl)amino]pyrimidin-4-yl]amino]-5-(4,5-dimethyl-1,2,4-triazol-3-yl)-3-pyridyl]-N-(trideuteriomethyl)methanesulfonamide]"
< 0.0002,0.01 to 0.1,"Cc1cc(Nc2cc(Nc3ncc(-c4ncc(C)n4C)cc3N(C)S(C)(=O)=O)ncn2)nc(C)n1 [Example 140, N-[5-(1,5-dimethylimidazol-2-yl)-2-[[6-[(2,6-dimethylpyrimidin-4-yl)amino]pyrimidin-4-yl]amino]-3-pyridyl]-N-methyl-methanesulfonamide]"
< 0.0002,0.01 to 0.1,"COc1c(Nc2cc(Nc3cc(C)nc(C)n3)ncn2)ncc(-c2cnn(C)c2C)c1C [Example 141, N6-[5-(1,5-dimethylpyrazol-4-yl)-3-methoxy-4-methyl-2-pyridyl]-N4-(2,6-dimethylpyrimidin-4-yl)pyrimidine-4,6-diamine]"
< 0.0002,0.01 to 0.1,"Cc1cc(Nc2cc(Nc3ncc(-c4cnc(C)n4C)cc3N(C)S(C)(=O)=O)ncn2)nc(C)n1 [Example 142, N-[5-(2,3-dimethylimidazol-4-yl)-2-[[6-[(2,6-dimethylpyrimidin-4-yl)amino]pyrimidin-4-yl]amino]-3-pyridyl]-N-methyl-methanesulfonamide]"
0.001 to 0.01,> 1,"COc1c(-c2noc(C(F)(F)F)n2)ccnc1Nc1cc(Nc2cc(C)nc(C)n2)ncn1 [Example 143, N6-(2,6-dimethylpyrimidin-4-yl)-N4-[3-methoxy-4-[5-(trifluoromethyl)-1,2,4-oxadiazol-3-yl]-2-pyridyl]pyrimidine-4,6-diamine]"
< 0.0002,0.01 to 0.1,"Cc1cc(Nc2cc(Nc3ncc(-c4cnn(C)c4C)cc3NS(C)(=O)=O)ncn2)nc(C)n1 [Example 144, N-[5-(1,5-dimethylpyrazol-4-yl)-2-[[6-[(2,6-dimethylpyrimidin-4-yl)amino]pyrimidin-4-yl]amino]-3-pyridyl]methanesulfonamide]"
< 0.0002,0.01 to 0.1,"Cc1cc(Nc2cc(Nc3ncccc3P(C)(C)=O)ncn2)nc(C)n1 [Example 145, N6-(3-dimethylphosphoryl-2-pyridyl)-N4-(2,6-dimethylpyrimidin-4-yl)pyrimidine-4,6-diamine]"
< 0.0002,< 0.01,"COc1cc(-c2cnn(C)c2C)cnc1Nc1cc(Nc2cc(C)nc(C)n2)ncn1 [Example 146, N6-[5-(1,5-dimethylpyrazol-4-yl)-3-methoxy-2-pyridyl]-N4-(2,6-dimethylpyrimidin-4-yl)pyrimidine-4,6-diamine]"
< 0.0002,0.01 to 0.1,"Cc1cc(Nc2cc(Nc3ncc(-c4cn(C)cn4)cc3N(C)S(C)(=O)=O)ncn2)nc(C)n1 [Example 147, N-[2-[[6-[(2,6-dimethylpyrimidin-4-yl)amino]pyrimidin-4-yl]amino]-5-(1-methylimidazol-4-yl)-3-pyridyl]-N-methyl-methanesulfonamide]"
< 0.0002,0.01 to 0.1,"COc1c(-c2nc(C)n(C)n2)ccnc1Nc1cc(Nc2cc(C)nc(C)n2)ncn1 [Example 148, N4-(2,6-dimethylpyrimidin-4-yl)-N6-[4-(1,5-dimethyl-1,2,4-triazol-3-yl)-3-methoxy-2-pyridyl]pyrimidine-4,6-diamine]"
< 0.0002,< 0.01,"Cc1cc(Nc2cc(Nc3ncc(-c4cnn(C)c4C)cc3P(C)(C)=O)ncn2)nc(C)n1 [Example 149, N6-[3-dimethylphosphoryl-5-(1,5-dimethylpyrazol-4-yl)-2-pyridyl]-N4-(2,6-dimethylpyrimidin-4-yl)pyrimidine-4,6-diamine]"
< 0.0002,< 0.01,"Cc1cc(Nc2cc(Nc3nccc(C)c3S(C)(=O)=O)ncn2)nc(C)n1 [Example 150, N4-(2,6-dimethylpyrimidin-4-yl)-N6-(4-methyl-3-methylsulfonyl-2-pyridyl)pyrimidine-4,6-diamine]"
< 0.0002,< 0.01,"Cc1c(-c2cnc(Nc3cc(NC(=O)C4CC4)ncn3)c(S(C)(=O)=O)c2)cnn1C [Example 151, N-[6-[[5-(1,5-dimethylpyrazol-4-yl)-3-methylsulfonyl-2-pyridyl]amino]pyrimidin-4-yl]cyclopropanecarboxamide]"
< 0.0002,< 0.01,"Cc1c(-c2cnc(Nc3cc(Nc4ccc(F)cn4)ncn3)c(S(C)(=O)=O)c2)cnn1C [Example 152, N4-[5-(1,5-dimethylpyrazol-4-yl)-3-methylsulfonyl-2-pyridyl]-N6-(5-fluoro-2-pyridyl)pyrimidine-4,6-diamine]"
< 0.0002,< 0.01,"Cc1cc(Nc2cc(Nc3ncc(-c4cnn(C)c4C)c(C)c3S(C)(=O)=O)ncn2)nc(C)n1 [Example 153, N6-[5-(1,5-dimethylpyrazol-4-yl)-4-methyl-3-methylsulfonyl-2-pyridyl]-N4-(2,6-dimethylpyrimidin-4-yl)pyrimidine-4,6-diamine]"
< 0.0002,0.01 to 0.1,"Cc1cc(Nc2cc(Nc3ncc(-c4nc(C)n(C)n4)cc3N(C)S(C)(=O)=O)ncn2)ncn1 [Example 154, N-[5-(1,5-dimethyl-1,2,4-triazol-3-yl)-2-[[6-[(6-methylpyrimidin-4-yl)amino]pyrimidin-4-yl]amino]-3-pyridyl]-N-methyl-methanesulfonamide]"
0.0002 to 0.001,0.1 to 1,"Cc1cc(Nc2cc(Nc3ncc(-c4nc(C)nn4C)cc3N(C)S(C)(=O)=O)ncn2)ncn1 [Example 155, N-[5-(2,5-dimethyl-1,2,4-triazol-3-yl)-2-[[6-[(6-methylpyrimidin-4-yl)amino]pyrimidin-4-yl]amino]-3-pyridyl]-N-methyl-methanesulfonamide]"
0.001 to 0.01,> 1,"Cc1cc(Nc2cc(Nc3nc(C)ccc3S(C)(=O)=O)ncn2)ncn1 [Example 156, N6-(6-methyl-3-methylsulfonyl-2-pyridyl)-N4-(6-methylpyrimidin-4-yl)pyrimidine-4,6-diamine]"
0.0002 to 0.001,0.01 to 0.1,"Cc1cc(Nc2cc(Nc3ncc(C4CCOCC4)cc3N(C)S(C)(=O)=O)ncn2)nc(C)n1 [Example 157, N-[2-[[6-[(2,6-dimethylpyrimidin-4-yl)amino]pyrimidin-4-yl]amino]-5-(oxan-4-yl)pyridin-3-yl]-N-methylmethanesulfonamide]"
< 0.0002,0.01 to 0.1,"Cc1ccc(Nc2cc(Nc3ncc(-c4cnn(C)c4C)cc3N(C)S(C)(=O)=O)ncn2)nn1 [Example 158, N-[5-(1,5-dimethylpyrazol-4-yl)-2-[[6-[(6-methylpyridazin-3-yl)amino]pyrimidin-4-yl]amino]-3-pyridyl]-N-methyl-methanesulfonamide]"
< 0.0002,< 0.01,"COc1c(-c2noc(C)n2)ccnc1Nc1cc(Nc2cc(C)nc(C)n2)ncn1 [Example 159, 4-N-(2,6-dimethylpyrimidin-4-yl)-6-N-[3-methoxy-4-(5-methyl-1,2,4-oxadiazol-3-yl)pyridin-2-yl]pyrimidine-4,6-diamine]"
